Reference: ChEMBL document CHEMBL3885861, “Open TG-GATES”

Organism: Rattus norvegicus
Assay: Open TG-GATES - Regimen: Single
Type: toxicity, organism-based, Sprague-Dawley
Design: regimen Single, gender Male, age 6 weeks
Conditions: in vivo, iv, route intravenous injection; for APTT / Bas / Eos / Fbg / Hb / Ht / Lym / MCH / MCHC / MCV / Mono / Neu / PT / Plat / RBC / Ret / WBC: tissue Blood; for KIDNEY_L / KIDNEY_R / KIDNEY_TOTAL: tissue Kidney; for LIVER: tissue Liver; for A/G / ALP / ALT / AST / BUN / CRE / Ca / Cl / DBIL / GLC / IP / K / LDH / Na / PL / RALB / TBIL / TC / TG / TP / gamma-GTP: tissue Plasma
[1] = 0 mg/kg, 3 h, dose level Control
[2] = 0 mg/kg, 6 h, dose level Control
[3] = 0 mg/kg, 9 h, dose level Control
[4] = 0 mg/kg, 24 h, dose level Control

## C[C@@H]1[C@H](O)[C@@H](C)/C=C/C=C/C=C/C=C/C=C/C=C/C=C/[C@H](O[C@@H]2O[C@H](C)[C@@H](O)[C@H](N)[C@@H]2O)C[C@@H]2O[C@](O)(C[C@@H](O)C[C@@H](O)[C@H](O)CC[C@@H](O)C[C@@H](O)CC(=O)O[C@H]1C)C[C@H](O)[C@H]2C(=O)O [AMPHOTERICIN B]
[1]
  TERMINAL_BW: 219.1 g
  APTT: 17.6 s
  Bas: 0%
  Eos: 0.6%
  Fbg: 275.4 mg/dL
  Hb: 13.2 g/dL
  Ht: 39.1%
  Lym: 78.4%
  MCH: 20.8 pg
  MCHC: 33.9%
  MCV: 61.3 fL
  Mono: 2.6%
  Neu: 17.2%
  PT: 13.1 s
  Plat: 131.5 x10_4/uL
  RBC: 638.4 x10_4/ul
  Ret: 7%
  WBC: 102.7 x10_2/uL
  KIDNEY_L: 0.9 g
  KIDNEY_R: 1 g
  KIDNEY_TOTAL: 1.9 g
  LIVER: 9.9 g
  A/G: 0.8
  ALP: 1671 IU/L
  ALT: 40.4 IU/L
  AST: 86 IU/L
  BUN: 11.4 mg/dL
  CRE: 0.2 mg/dL
  Ca: 11 mg/dL
  Cl: 106.2 meq/L
  DBIL: 0.02 mg/dL
  GLC: 167.2 mg/dL
  IP: 8.3 mg/dL
  K: 3.9 meq/L
  LDH: 67 IU/L
  Na: 142 meq/L
  PL: 130.4 mg/dL
  RALB: 2.5 g/dL
  TBIL: 0.066 mg/dL
  TC: 75.4 mg/dL
  TG: 58.8 mg/dL
  TP: 5.5 g/dL
  gamma-GTP: 1.6 IU/L
[2]
  TERMINAL_BW: 212 g
  APTT: 17 s
  Bas: 0%
  Eos: 0.8%
  Fbg: 271.2 mg/dL
  Hb: 13.4 g/dL
  Ht: 39.9%
  Lym: 77.2%
  MCH: 21.1 pg
  MCHC: 33.6%
  MCV: 62.6 fL
  Mono: 1.8%
  Neu: 19.6%
  PT: 13.1 s
  Plat: 129.4 x10_4/uL
  RBC: 637.4 x10_4/ul
  Ret: 8.6%
  WBC: 90.4 x10_2/uL
  KIDNEY_L: 0.9 g
  KIDNEY_R: 0.9 g
  KIDNEY_TOTAL: 1.9 g
  LIVER: 8.8 g
  A/G: 0.8
  ALP: 1553.8 IU/L
  ALT: 35.6 IU/L
  AST: 68 IU/L
  BUN: 8.4 mg/dL
  CRE: 0.1 mg/dL
  Ca: 10.6 mg/dL
  Cl: 105 meq/L
  DBIL: 0.014 mg/dL
  GLC: 182.2 mg/dL
  IP: 9.9 mg/dL
  K: 3.9 meq/L
  LDH: 50.8 IU/L
  Na: 142 meq/L
  PL: 125.8 mg/dL
  RALB: 2.5 g/dL
  TBIL: 0.064 mg/dL
  TC: 76.2 mg/dL
  TG: 46.8 mg/dL
  TP: 5.5 g/dL
  gamma-GTP: 1.6 IU/L
[3]
  TERMINAL_BW: 208.7 g
  APTT: 17.4 s
  Bas: 0%
  Eos: 1%
  Fbg: 281.4 mg/dL
  Hb: 13.4 g/dL
  Ht: 39.1%
  Lym: 71.8%
  MCH: 21.1 pg
  MCHC: 34.2%
  MCV: 61.6 fL
  Mono: 1.8%
  Neu: 24.4%
  PT: 13.2 s
  Plat: 136.6 x10_4/uL
  RBC: 635 x10_4/ul
  Ret: 8.1%
  WBC: 80.2 x10_2/uL
  KIDNEY_L: 0.9 g
  KIDNEY_R: 0.9 g
  KIDNEY_TOTAL: 1.8 g
  LIVER: 8.3 g
  A/G: 0.8
  ALP: 1611.8 IU/L
  ALT: 30.6 IU/L
  AST: 67.6 IU/L
  BUN: 8.6 mg/dL
  CRE: 0.1 mg/dL
  Ca: 10.6 mg/dL
  Cl: 106.4 meq/L
  DBIL: 0.018 mg/dL
  GLC: 170.2 mg/dL
  IP: 9.7 mg/dL
  K: 3.7 meq/L
  LDH: 54.8 IU/L
  Na: 142.2 meq/L
  PL: 120.8 mg/dL
  RALB: 2.5 g/dL
  TBIL: 0.068 mg/dL
  TC: 72.6 mg/dL
  TG: 43.8 mg/dL
  TP: 5.6 g/dL
  gamma-GTP: 1.8 IU/L
[4]
  TERMINAL_BW: 228.2 g
  APTT: 15.8 s
  Bas: 0.2%
  Eos: 1%
  Fbg: 302.6 mg/dL
  Hb: 13 g/dL
  Ht: 38.7%
  Lym: 78.8%
  MCH: 20.9 pg
  MCHC: 33.6%
  MCV: 62.4 fL
  Mono: 2.2%
  Neu: 17%
  PT: 12.3 s
  Plat: 145.5 x10_4/uL
  RBC: 621.8 x10_4/ul
  Ret: 7.1%
  WBC: 93.8 x10_2/uL
  KIDNEY_L: 1 g
  KIDNEY_R: 1 g
  KIDNEY_TOTAL: 1.9 g
  LIVER: 10.4 g
  A/G: 0.9
  ALP: 1818.6 IU/L
  ALT: 37.6 IU/L
  AST: 66.8 IU/L
  BUN: 15.2 mg/dL
  CRE: 0.2 mg/dL
  Ca: 11 mg/dL
  Cl: 105.6 meq/L
  DBIL: 0.02 mg/dL
  GLC: 169 mg/dL
  IP: 7.7 mg/dL
  K: 3.8 meq/L
  LDH: 53.2 IU/L
  Na: 143.4 meq/L
  PL: 133.4 mg/dL
  RALB: 2.6 g/dL
  TBIL: 0.054 mg/dL
  TC: 74.2 mg/dL
  TG: 96.8 mg/dL
  TP: 5.8 g/dL
  gamma-GTP: 1.6 IU/L
1 mg/kg, 3 h, dose level Low
  TERMINAL_BW: 214.2 g
  APTT: 16.8 s
  Bas: 0%
  Eos: 0.6%
  Fbg: 257 mg/dL
  Hb: 13.6 g/dL
  Ht: 39.9%
  Lym: 74.6%
  MCH: 21.2 pg
  MCHC: 34.1%
  MCV: 62 fL
  Mono: 3.2%
  Neu: 20.6%
  PT: 13 s
  Plat: 139.1 x10_4/uL
  RBC: 644.6 x10_4/ul
  Ret: 7.7%
  WBC: 97.1 x10_2/uL
  KIDNEY_L: 1 g
  KIDNEY_R: 1 g
  KIDNEY_TOTAL: 1.9 g
  LIVER: 9.8 g
  A/G: 0.9
  ALP: 1691 IU/L
  ALT: 40 IU/L
  AST: 85.4 IU/L
  BUN: 18.8 mg/dL
  CRE: 0.2 mg/dL
  Ca: 10.9 mg/dL
  Cl: 106.6 meq/L
  DBIL: 0.018 mg/dL
  GLC: 173.4 mg/dL
  IP: 8.6 mg/dL
  K: 3.9 meq/L
  LDH: 58.8 IU/L
  Na: 143.2 meq/L
  PL: 129.4 mg/dL
  RALB: 2.6 g/dL
  TBIL: 0.058 mg/dL
  TC: 74 mg/dL
  TG: 53.8 mg/dL
  TP: 5.6 g/dL
  gamma-GTP: 2 IU/L
1 mg/kg, 6 h, dose level Low
  TERMINAL_BW: 208.2 g
  APTT: 15.4 s
  Bas: 0%
  Eos: 0.8%
  Fbg: 286.6 mg/dL
  Hb: 13.3 g/dL
  Ht: 39.5%
  Lym: 68.6%
  MCH: 20.9 pg
  MCHC: 33.7%
  MCV: 62 fL
  Mono: 2.8%
  Neu: 27%
  PT: 12.8 s
  Plat: 135.3 x10_4/uL
  RBC: 636.4 x10_4/ul
  Ret: 7.9%
  WBC: 98.4 x10_2/uL
  KIDNEY_L: 1 g
  KIDNEY_R: 0.9 g
  KIDNEY_TOTAL: 1.9 g
  LIVER: 9 g
  A/G: 0.8
  ALP: 1534.4 IU/L
  ALT: 38.2 IU/L
  AST: 70.8 IU/L
  BUN: 16.4 mg/dL
  CRE: 0.1 mg/dL
  Ca: 10.7 mg/dL
  Cl: 106.6 meq/L
  DBIL: 0.016 mg/dL
  GLC: 180 mg/dL
  IP: 10.1 mg/dL
  K: 3.4 meq/L
  LDH: 57.2 IU/L
  Na: 144.6 meq/L
  PL: 135 mg/dL
  RALB: 2.6 g/dL
  TBIL: 0.062 mg/dL
  TC: 83.8 mg/dL
  TG: 41.4 mg/dL
  TP: 5.7 g/dL
  gamma-GTP: 1.4 IU/L
1 mg/kg, 9 h, dose level Low
  TERMINAL_BW: 208.6 g
  APTT: 16.5 s
  Bas: 0%
  Eos: 1%
  Fbg: 296.2 mg/dL
  Hb: 13.2 g/dL
  Ht: 38.5%
  Lym: 71.4%
  MCH: 20.9 pg
  MCHC: 34.2%
  MCV: 61 fL
  Mono: 1.8%
  Neu: 25.4%
  PT: 12.9 s
  Plat: 132.4 x10_4/uL
  RBC: 631.6 x10_4/ul
  Ret: 7.9%
  WBC: 97.1 x10_2/uL
  KIDNEY_L: 0.9 g
  KIDNEY_R: 0.9 g
  KIDNEY_TOTAL: 1.9 g
